The values that follow come from US9844546B2, “Antibody against human HIF hydroxylase” (OXFORD UNIVERSITY INNOVATION LIMITED, priority 2001, dated 2017).

“Also recorded” adds a separate entry of the source.

This experiment deals with pVHL. Description: pVHL capture assay using biotinylated synthetic polypeptides. As to conditions: wild type or mutant (Pro86His) pVHL; with or without cell extract. It counts as binding, human. The procedure:
We synthesized a polypeptide (HIF-1α residues 556-574), containing a trans-4-hydroxy-S-proline residue at position 564 (19:Pro564Hyp), since the trans-4-hydroxylation is the commonest enzymatic proline oxidation (25). A polypeptide blocking assay was carried out using the 19:Pro564Hyp modified polypeptide and, as a control, the unmodified polypeptide without the trans-4-hydroxylation (19:WT). The 19:WT polypeptide was either incubated with cell extract before the binding assay or was untreated. The 19:Pro564Hyp polypeptide was added to a mixture of HIF-1α and pVHL-HA IVTTs at a concentration of 1, 0.25, 0.05 or 0.01 μM and the cell extract treated or untreated 19:WT polypeptide at a concentration of 0.5 μM. Interaction of HIF-1α with pVHL was then assayed by anti-HA immunoprecipitation. […] A pVHL capture assay was then carried out using biotinylated synthetic polypeptides. The same polypeptides, 19:Pro564Hyp and 19:WT were assessed for the ability to capture wild type or mutant (Pro86His) pVHL. […] In both cases capture was specific for wild type, as opposed to mutant, pVHL.
• 1. G. L. Semenza, Genes Dev 14, 1983-91. (2000). • 2. N. V. Iyer, et al., Genes Dev. 12, 149-162 (1997). • 3. E. Maltepe, J. V. Schmidt, D. Baunoch, C. A. Bradfield, M. C. Simon, Nature 386, 403-407 (1997). • 4. G. L. Wang, B.-H. Jiang, E. A. Rue, G. L. Semenza, Proc. Natl. Acad. Sci. USA 92, 5510-5514 (1995). • 5. […]

With “19:Pro564Hyp: polypeptide (HIF-1α residues 556-574) containing a trans-4-hydroxy-S-proline residue at position 564”, the “capture of pVHL by biotinylated polypeptide” value is “captured wild type pVHL without pre-treatment; also recorded: specifically captured wild type but not mutant pVHL”.
For “19:WT: polypeptide comprising HIF-1α residues 556 to 574” the value was “captured pVHL only after incubation with cell extract; also recorded: could not interact without prior incubation with cell extract”.
